Assay results from the supplement of paper PMC10307832.

Columns and labels:
Experiment in all cases: relative viability (nuclei count vs DMSO), 5 days (fraction); higher = more cells survive
[1] = compound: C1CNCCC1C2=CC(=NN2)C3=CC=NC=C3 + Cc1cc(Nc2cc(N3CCN(C)CC3)nc(Sc3ccc(NC(=O)C4CC4)cc3)n2)n[nH]1 [Tozasertib] (partner 0.1 µM)
In short: (§1)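 Medians of duplicate plates are given as relative viability. That measure is the nuclei count in treated wells divided by the count in vehicle wells. Counts were taken on 4× images of lung cancer cell lines in 1536-well plates, 5 days after pin-tool dosing the day after seeding with one drug alone or a fixed anchor-drug dose plus five library-drug doses (not always all listed) in √10 steps.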

[2] = compound: C[C@@H](N)c1ccc(C(=O)Nc2ccnc3[nH]ccc23)cc1 + CCNC(=O)c1noc(-c2cc(C(C)C)c(O)cc2O)c1-c1ccc(CN2CCOCC2)cc1 [Luminespib] (partner 0.01 µM)
In short: as §1

[3] = compound: C[C@@H](N)c1ccc(C(=O)Nc2ccnc3[nH]ccc23)cc1 + Cc1cc(Nc2cc(N3CCN(C)CC3)nc(Sc3ccc(NC(=O)C4CC4)cc3)n2)n[nH]1 [Tozasertib] (partner 0.1 µM)
In short: as §1

Tanzisertib + AZD7762 = compound: O[C@H]1CC[C@H](Nc2ncc3nc(Nc4c(F)cc(F)cc4F)n([C@H]4CCOC4)c3n2)CC1 [Tanzisertib] + NC(=O)Nc1cc(-c2cccc(F)c2)sc1C(=O)N[C@H]1CCCNC1 [AZD7762] (partner 0.2 µM)
In short: as §1

Cell Line | relative viability ([1]; first compound 0.08 µM) | relative viability ([1]; first compound 0.8 µM) | relative viability ([1]; first compound 2.53 µM) | relative viability ([1]; first compound 8 µM) | relative viability ([2]; first compound 0.04 µM) | relative viability ([2]; first compound 0.1265 µM) | relative viability ([2]; first compound 0.4 µM) | relative viability ([2]; first compound 1.265 µM) | relative viability ([2]; first compound 4 µM) | relative viability ([3]; first compound 0.04 µM) | relative viability ([3]; first compound 0.1265 µM) | relative viability ([3]; first compound 0.4 µM) | relative viability ([3]; first compound 4 µM) | relative viability (Tanzisertib + AZD7762; first compound 0.08 µM) | relative viability (Tanzisertib + AZD7762; first compound 0.253 µM) | relative viability (Tanzisertib + AZD7762; first compound 0.8 µM) | relative viability (Tanzisertib + AZD7762; first compound 2.53 µM) | relative viability (Tanzisertib + AZD7762; first compound 8 µM) | relative viability ([3]; first compound 1.265 µM)
ABC-1 | 0.145 | 0.17 | 0.201 | 0.176 | 1 | 0.678 | 0.529 | 0.553 | 0.811 | 0.173 | 0.158 | 0.203 | 0.164 | 0.914 | 0.822 | 0.871 | 0.649 | 0.611 | 
LK-2 | 0.157 | 0.208 | 0.182 | 0.184 | 0.202 |  | 0.218 |  | 0.238 | 0.165 |  | 0.17 | 0.171 | 0.41 | 0.455 | 0.421 | 0.32 | 0.346 | 
NCI-H596 | 0.874 | 1.04 | 0.814 | 1.01 | 1.33 | 0.912 | 0.98 |  | 0.975 | 0.934 | 0.839 | 0.978 | 0.843 | 1.04 | 1.04 | 1.12 | 0.995 | 1.04 | 
NCI-H1793 | 0.313 | 0.243 | 0.332 | 0.373 | 0.165 | 0.184 | 0.178 |  | 0.183 | 0.447 | 0.32 | 0.367 | 0.378 | 0.643 | 0.574 | 0.462 | 0.406 | 0.397 | 
NCI-H2405 | 0.749 | 0.751 | 0.692 | 0.525 | 0.461 | 0.805 | 0.577 | 0.279 | 0.238 | 0.858 | 0.832 | 0.759 | 0.35 | 0.767 | 0.794 | 0.757 | 0.795 | 0.617 | 0.507
LCLC-103H | 0.469 | 0.534 | 0.459 | 0.443 | 1.15 | 0.914 | 0.956 | 0.911 | 0.69 | 0.502 | 0.482 | 0.51 | 0.388 | 0.877 | 0.735 | 0.769 | 0.8 | 0.754 | 0.421
